Converted amounts (≈) assume the structure as drawn. Where two headings read alike, the source gives them in different places.
Tests used:
[1] = tested on: Enterococcus faecalis 29 212; test: MIC, broth micro dilution
Procedure: (§5) According to CLSI guideline the Minimal Inhibitory Concentrations (MICs) of the prepared compounds were determined with the broth micro dilution method. After an overnight growth on 5% bovine blood agar plates at 35 °C bacterial strains were suspended in physiological saline in order to reach the density of 0.5 McFarland for inoculation. Stock solutions containing different concentrations of the substances were prepared in DMSO and H2O (1:1). These were twofold serially diluted from 256 to 0.5 mg/l in Mueller–Hinton broth, and 100 ml of each dilution was inoculated with 10 ml of each bacterial suspension.

[2] = tested on: Enterococcus faecalis 15 376 VanA; test: MIC, broth micro dilution
Procedure: as §5

[3] = tested on: Enterococcus faecalis 51299 VanB; test: MIC, broth micro dilution
Procedure: as §5

[4] = tested on: MRSA (Methicillin Resistant Staphylococcus aureus); test: MIC, broth micro dilution
Procedure: as §5

[5] = tested on: MSSA (Methicillin Sensitive Staphylococcus aureus); test: MIC, broth micro dilution
Bacillus subtilis = test: MIC, broth micro dilution
MCF7 cells = test: Antiproliferative MTT assay, 72 h; format: cell-based, human; details: for antiproliferative activity (in words): MCF7, 10 and 30 μM; for inhibition of the proliferation: MCF7, 30 μM
Excerpt: (§1) Human adherent cancer cell lines A2780, MDA-MB-231 and MCF-7 were obtained from ECACC (European Collection of Cell Cultures, Salisbury, UK; Cat. No.93112519, 92020424, 86012803, respectively). SiHa cell line was obtained from ATCC (American Tissue Culture Collection, Manassas, Virginia, USA; Cat. No. HTB-35). All cell lines used for antiproliferative assay were maintained in Eagle's Minimum Essential Medium (EMEM) completed with 10% fetal bovine serum (FBS), 1% non-essential amino acid solution, and 1% penicillin, streptomycin, and amphotericin B mixture under cell culture conditions described before. All the utilized media and supplements were purchased from Lonza Group Ltd. (Basel, Switzerland).
(§2) The antiproliferative actions of the prepared molecules were determined by the same assay against a panel of adherent human cancer cell lines containing cervical (SiHa), ovarian (A2780) and breast (MCF7, MDA-MB-231) cell lines. Cells were plated onto 96-well microplates (5000 cells/well) and after an overnight incubation treated with two concentrations (10 or 30 μM) of the test substances for 72 h under cell culture conditions. Subsequently, MTT (5 mg/ml in phosphate buffer) was added to the wells, followed by incubation for 4 h. The supernatant was removed, the formazan crystals were then dissolved in 100 µl DMSO. Finally, absorbance values were determined by a microplate reader (BMG Labtech, Ortenberg, Germany) at 545 nm. Two independent measurements were performed with five parallel wells. Results were expressed as percentage of cell proliferation inhibition compared to non-treated control samples regarded as 0%.

A2780 cells = test: Antiproliferative MTT assay, 72 h; format: cell-based, human; details: for antiproliferative activity (in words): A2780, 10 and 30 μM
Excerpt: as §1, §2

MDA-MB-231 cells = test: Antiproliferative MTT assay, 72 h; format: cell-based, human; details: for antiproliferative activity (in words): MDA-MB-231, 10 and 30 μM
Excerpt: as §1, §2

SiHa cells = test: Antiproliferative MTT assay, 72 h; format: cell-based, human; details: for antiproliferative activity (in words): 10 and 30 μM
Excerpt: as §1, §2

[6] = tested on: Staphylococcus epidermidis biofilm forming; test: MIC, broth micro dilution
Procedure: as §5

[7] = tested on: Staphylococcus epidermidis mecA; test: MIC, broth micro dilution
SARS-CoV-2 [8] = test: SARS-CoV-2 cytopathic effect (CPE) inhibition assay in Vero E6 cells (XTT); format: cell-based; details: for EC50: Severe acute respiratory syndrome coronavirus 2, Vero C1008, 72 h, Vero E6 cells, 3 days post-infection, XTT; for IC50: Severe acute respiratory syndrome coronavirus 2, Vero C1008, read-out: IC50 (anti-SARS-CoV-2 activity, Figure 8)
Procedure: (§3) CBD and CBG derivatives were further tested for their ability to inhibit SARS-CoV-2 replication in Vero E6 cells. Initially, the inhibition of virus-induced cytopathic effect was measured by addition of twofold serial dilutions of each derivative to the cells, followed by the infection with SARS-CoV-2 and determination of the cell viability 3 days post-infection by XTT assay. Concurrently, the cytotoxicity of each compound was assessed from identical dilutions in uninfected Vero E6 cells. To confirm anti-SARS-CoV-2 activity in the CPE inhibition assay, selected compounds were tested in immunofluorescence assay, where inhibition of SARS-CoV-2 replication was monitored as reduction in nucleoprotein expression using fluorescence microscope. […] Among the CBG derivatives, we can find quite cytotoxic and non-cytotoxic derivatives as well.
(§4) For CPE-based assay, two-fold fold serial dilutions of compounds from 100 µM were added in triplicate in a 384-well plate with 5000 Vero E6 cells in DMEM medium with 2% FBS, 100 U of penicillin/ml and 100 µg of streptomycin/ml (all Merck). After 1 h incubation SARS-CoV-2 (strain hCoV-19/Czech Republic/NRL_6632_2/2020) was added at multiplicity of infection […]. Following three days incubation at 37 °C in 5% CO2 the cell viability was determined by addition of XTT solution (Sigma-Aldrich) for 4 h and the absorbance was measured using EnVision plate reader (Perkin Elmer). Drug concentrations required to reduce viral cytopathic effect by 50% (EC50) were calculated using nonlinear regression from plots of percentage cell viability versus log10 drug concentration using GraphPad Prism (version 9.0.0, GraphPad Software, LLC). For immunofluorescence assay, two-fold fold serial dilutions of compounds from 100 µM were added in triplicate in 96-well plate with 15,000 Vero E6 cells plated day before in the same medium as above. After 1 h incubation, SARS-CoV-2 was added at multiplicity of infection 0.05 IU/cell. After three days of incubation, cells were fixed with 4% paraformaldehyde, permeabilized with 0.2% Triton X100 (both Merck), washed, incubated with anti-SARS-CoV-2antibody (mouse monoclonal antibody detecting SARS-CoV-2 nucleoprotein) for 2 h at room temperature. Followed by 1.5 h incubation with Cy3-labeled donkey anti-mouse IgG (Jackson ImmunoResearch Europe) and documented using fluorescence microscope with camera (Olympus). Images were processed in ImageJ software (NIH) and compound concentrations required to reduce fluorescence by 50% (EC50s) were calculated from plots of percentage of fluorescent cells versus log10 drug concentration using nonlinear regression analysis as above. Cytotoxicity was evaluated by incubating with the same two-fold serial dilutions of each compound as above with Vero E6 cells in 384-well plate.

SARS-CoV-2 [9] = test: SARS-CoV-2 immunofluorescence assay (nucleoprotein expression) in Vero E6 cells; format: cell-based; details: Severe acute respiratory syndrome coronavirus 2, Vero C1008, 72 h, three days
Procedure: as §3, §4

in vitro = details: African green monkey
[10] = Enterococcus faecalis, 15376VANA
[11] = Enterococcus faecalis, 51299VANB

Row | SMILES | MIC (Bacillus subtilis) | antiproliferative activity (in words) (MCF7 cells) | antiproliferative activity (in words) (A2780 cells) | antiproliferative activity (in words) (MDA-MB-231 cells) | antiproliferative activity (in words) (SiHa cells) | EC50 (SARS-CoV-2 [8]) | IC50 (SARS-CoV-2 [8]) | MIC ([1]; Enterococcus faecalis, 29212) | MIC [2, 10] | MIC [3, 11] | MIC ([4]; Staphylococcus aureus) | MIC ([5]; Staphylococcus aureus) | EC50 (SARS-CoV-2 [9]) | CC50 (in vitro) | MIC ([6]; Staphylococcus epidermidis) | MIC ([7]; Staphylococcus epidermidis) | further results
1 | C=C(C)[C@@H]1CCC(C)=C[C@H]1c1c(O)cc(CCCCC)c2c1OCN(CCCC)C2.Cl [Compound 8s] | 128 µg/mL | no significant difference was detected | no significant difference was detected | no significant difference was detected | no significant difference was detected | – | – | – | – | – | – | – | – | – | – | – | MIC ([1]; Enterococcus faecalis 29 212): 2 µg/mL; MIC ([2]; Enterococcus faecalis 15 376 VanA): 128 µg/mL; MIC ([3]; Enterococcus faecalis 51299 VanB): 2 µg/mL; MIC [4]: 128 µg/mL; MIC [5]: 128 µg/mL; MIC ([6]; Staphylococcus epidermidis biofilm forming): 128 µg/mL; MIC ([7]; Staphylococcus epidermidis mecA): 128 µg/mL
2 | C=C(C)[C@@H]1CCC(C)=C[C@H]1c1c(O)cc(CCCCC)c2c1OCN(Cc1ccccc1)C2 [Compound 10] | > 256 µg/mL | – | – | – | – | 9 ± 0.51 µM | 9 µM | > 256 µg/mL | > 256 µg/mL | > 256 µg/mL | > 256 µg/mL | > 256 µg/mL | ~42 µM | > 100 µM | > 256 µg/mL | > 256 µg/mL | inhibition of the proliferation (MCF7 cells): considerable growth inhibition
3 | C=C(C)[C@@H]1CCC(C)=C[C@H]1c1c(O)cc(CCCCC)c2c1OCN(CCCC(=O)O)C2 [Compound 12] | > 256 µg/mL | None of the other tested CBD analogs (9, 11, and 12) exhibited substantial antiproliferative activity | None of the other tested CBD analogs (9, 11, and 12) exhibited substantial antiproliferative activity | None of the other tested CBD analogs (9, 11, and 12) exhibited substantial antiproliferative activity | None of the other tested CBD analogs (9, 11, and 12) exhibited substantial antiproliferative activity | 11 ± 1.2 µM | 11 µM | > 256 µg/mL | > 256 µg/mL | > 256 µg/mL | > 256 µg/mL | > 256 µg/mL | 39 ± 1.4 µM | ~56 µM | > 256 µg/mL | > 256 µg/mL | –
4 | C=C(C)[C@@H]1CCC(C)=C[C@H]1c1c(O)c(CN(CC)CC)c(CCCCC)c(CN(CC)CC)c1O [Compound 13] | > 256 µg/mL | – | – | – | – | > 12 µM | > 12 µM | > 256 µg/mL | > 256 µg/mL | > 256 µg/mL | > 256 µg/mL | > 256 µg/mL | – | 12 ± 0.28 µM | > 256 µg/mL | > 256 µg/mL | inhibition of the proliferation (in words) (MCF7 cells; MCF7, 10 μM): no relevant action; inhibition of the proliferation (MCF7 cells): similarly effective than CBD; inhibition of the proliferation (in words) (A2780 cells; A2780, 10 μM): no relevant action; inhibition of the proliferation (A2780 cells; A2780, 30 μM): similarly effective than CBD; inhibition of the proliferation (in words) (MDA-MB-231 cells; MDA-MB-231, 10 μM): no relevant action; inhibition of the proliferation (MDA-MB-231 cells; MDA-MB-231, 30 μM): similarly effective than CBD; inhibition of the proliferation (in words) (SiHa cells; 10 μM): no relevant action; inhibition of the proliferation (SiHa cells; 30 μM): similarly effective than CBD
5 | CCCCCc1cc(O)c(C/C=C(\C)CCC=C(C)C)c2c1CN(Cc1ccccc1)CO2 [Compound 17a] | > 256 µg/mL | – | – | – | – | > 100 µM | > 100 µM | 64 µg/mL (≈ 143 µM) | > 256 µg/mL | 64 µg/mL (≈ 143 µM) | > 256 µg/mL | > 256 µg/mL | – | > 100 µM | > 256 µg/mL | > 256 µg/mL | –
6 | CCCCCc1c2c(c(C/C=C(\C)CCC=C(C)C)c3c1CN(Cc1ccccc1)CO3)OCN(Cc1ccccc1)C2 [Compound 17b] | – | ineffectiveness | ineffectiveness | ineffectiveness | ineffectiveness | – | – | – | – | – | – | – | – | – | – | – | –
7 | C=CCN1COc2c(c(CCCCC)c3c(c2C/C=C(\C)CCC=C(C)C)OCN(CC=C)C3)C1 [Compound 19b] | – | more active than CBG | more active than CBG | more active than CBG | more active than CBG | – | – | – | – | – | – | – | – | – | – | – | –
8 | CCCCCc1cc(O)c(C/C=C(\C)CCC=C(C)C)c2c1CN(CCCC(=O)O)CO2 [Compound 20] | > 256 µg/mL | – | – | – | – | > 100 µM | > 100 µM | 64 µg/mL (≈ 144 µM) | 128 µg/mL (≈ 289 µM) | 128 µg/mL (≈ 289 µM) | > 256 µg/mL | > 256 µg/mL | – | > 100 µM | > 256 µg/mL | > 256 µg/mL | –
9 | CCC(CC)COC(=O)[C@H](C)N[P@](=O)(OC[C@H]1O[C@@](C#N)(c2ccc3c(N)ncnn23)[C@H](O)[C@@H]1O)Oc1ccccc1 [Remdesivir, reference compound] | – | – | – | – | – | 2.8 ± 0.18 µM | – | – | – | – | – | – | 1.2 ± 0.03 µM | > 100 µM | – | – | –
